Laboratory results: PubChem BioAssay AID308 (DTP/NCI, 2004)
Toxic doses and inconclusive results are not listed.

System: BDF1 mice, L1210 6-MP/6-TG resistant leukemia ip, survival T/C
Experiment: NCI In Vivo Anticancer Drug Screen. Data for tumor model L1210 Leukemia resistant to 6-MP and 6-Thioguanine; NSC 755, NSC 752 (intraperitoneal) in B6D2F1 (BDF1) mice
Details: endpoint: mean survival time, higher = longer survival
Description: The antitumor activity of compounds was measured in mice bearing transplantable tumors. Survival or tumor size were measured and the results are expressed as the measurement made in the treated group (T) divided by the measurement made in the vehicle treated control group (C). The tumor model used in this assay is L1210 Leukemia resistant to 6-MP and 6-Thioguanine; NSC 755, NSC 752 (intraperitoneal) in B6D2F1 (BDF1) mice

C=C(C)CSc1ncnc2nc[nH]c12
T/C (dose: 62.0 mg/kg/injection, schedule: Q01DX015 (ip), vehicle: other): 109 % of control | T/C (dose: 125.0 mg/kg/injection, schedule: Q01DX015 (ip), vehicle: other): 95 % of control | T/C (dose: 250.0 mg/kg/injection, schedule: Q01DX015 (ip), vehicle: other): 100 % of control

CC(CCC(C)OS(C)(=O)=O)OS(C)(=O)=O (stereo not drawn)
T/C (dose: 25.0 mg/kg/injection, schedule: Q01DX Z (ip), vehicle: carboxymethylcellulose (CMC)): 112 % of control | T/C (dose: 37.5 mg/kg/injection, schedule: Q01DX Z (ip), vehicle: carboxymethylcellulose (CMC)): 116 % of control | T/C (dose: 50.0 mg/kg/injection, schedule: Q01DX Z (ip), vehicle: carboxymethylcellulose (CMC)): 118 % of control | T/C (dose: 75.0 mg/kg/injection, schedule: Q01DX Z (ip), vehicle: carboxymethylcellulose (CMC)): 98 % of control

[N-]=[N+]=CC(=O)NCC(=O)NN
T/C (dose: 62.0 mg/kg/injection, schedule: Q01DX Z (ip), vehicle: saline): 114 % of control

CN(C)c1ccc(/C=C/c2ccnc3ccccc23)cc1
T/C (dose: 1.87 mg/kg/injection, schedule: Q01DX Z (ip), vehicle: saline): 115 % of control | T/C (dose: 3.75 mg/kg/injection, schedule: Q01DX Z (ip), vehicle: saline): 109 % of control | T/C (dose: 7.5 mg/kg/injection, schedule: Q01DX Z (ip), vehicle: saline): 115 % of control | T/C (dose: 15.0 mg/kg/injection, schedule: Q01DX Z (ip), vehicle: saline): 110 % of control | T/C (dose: 25.0 mg/kg/injection, schedule: Q01DX Z (ip), vehicle: saline): 102 % of control | T/C (dose: 50.0 mg/kg/injection, schedule: Q01DX Z (ip), vehicle: saline): 90 % of control

c1nc(SC2=NCCN2)c2[nH]cnc2n1
T/C (dose: 6.25 mg/kg/injection, schedule: Q01DX Z (ip), vehicle: saline): 98 % of control | T/C (dose: 12.5 mg/kg/injection, schedule: Q01DX Z (ip), vehicle: saline): 93 % of control

c1nc(SC2CCCC2)c2[nH]cnc2n1
T/C (dose: 80.0 mg/kg/injection, schedule: Q01DX Z (ip), vehicle: carboxymethylcellulose (CMC)): 96 % of control | T/C (dose: 160.0 mg/kg/injection, schedule: Q01DX Z (ip), vehicle: carboxymethylcellulose (CMC)): 110 % of control | T/C (dose: 320.0 mg/kg/injection, schedule: Q01DX Z (ip), vehicle: carboxymethylcellulose (CMC)): 89 % of control

N#[N+]c1cnc([O-])[nH]c1=O
T/C (dose: 5.0 mg/kg/injection, schedule: Q01DX Z (ip), vehicle: alkali diluted with saline): 166 % of control | T/C (dose: 7.5 mg/kg/injection, schedule: Q01DX Z (ip), vehicle: alkali diluted with saline): 177 % of control | T/C (dose: 10.0 mg/kg/injection, schedule: Q01DX Z (ip), vehicle: alkali diluted with saline): 150 % of control | T/C (dose: 15.0 mg/kg/injection, schedule: Q01DX Z (ip), vehicle: alkali diluted with saline): 95 % of control
